Experimental data from paper PMC11942486, “The Impact of a Quinone Scaffold on Thermo-TRPs Modulation by Dimethylheptyl Phytocannabinoids” (International Journal of Molecular Sciences, 2025).
Like-named read-outs stand apart in the source and are kept apart here.

Columns and labels:
Assay type in all cases: cell-based
rat TRPM8 = target: T1, rat TRPM8 (Rattus norvegicus, UniProt Q8R455); experiment: Thermo-TRP assay: [Ca2+]i elevation (Fluo-4) in HEK-293 cells transfected with TRPM8
T1 construct: expressed in transfected cells
T1 sequence (Q8R455 whole entry): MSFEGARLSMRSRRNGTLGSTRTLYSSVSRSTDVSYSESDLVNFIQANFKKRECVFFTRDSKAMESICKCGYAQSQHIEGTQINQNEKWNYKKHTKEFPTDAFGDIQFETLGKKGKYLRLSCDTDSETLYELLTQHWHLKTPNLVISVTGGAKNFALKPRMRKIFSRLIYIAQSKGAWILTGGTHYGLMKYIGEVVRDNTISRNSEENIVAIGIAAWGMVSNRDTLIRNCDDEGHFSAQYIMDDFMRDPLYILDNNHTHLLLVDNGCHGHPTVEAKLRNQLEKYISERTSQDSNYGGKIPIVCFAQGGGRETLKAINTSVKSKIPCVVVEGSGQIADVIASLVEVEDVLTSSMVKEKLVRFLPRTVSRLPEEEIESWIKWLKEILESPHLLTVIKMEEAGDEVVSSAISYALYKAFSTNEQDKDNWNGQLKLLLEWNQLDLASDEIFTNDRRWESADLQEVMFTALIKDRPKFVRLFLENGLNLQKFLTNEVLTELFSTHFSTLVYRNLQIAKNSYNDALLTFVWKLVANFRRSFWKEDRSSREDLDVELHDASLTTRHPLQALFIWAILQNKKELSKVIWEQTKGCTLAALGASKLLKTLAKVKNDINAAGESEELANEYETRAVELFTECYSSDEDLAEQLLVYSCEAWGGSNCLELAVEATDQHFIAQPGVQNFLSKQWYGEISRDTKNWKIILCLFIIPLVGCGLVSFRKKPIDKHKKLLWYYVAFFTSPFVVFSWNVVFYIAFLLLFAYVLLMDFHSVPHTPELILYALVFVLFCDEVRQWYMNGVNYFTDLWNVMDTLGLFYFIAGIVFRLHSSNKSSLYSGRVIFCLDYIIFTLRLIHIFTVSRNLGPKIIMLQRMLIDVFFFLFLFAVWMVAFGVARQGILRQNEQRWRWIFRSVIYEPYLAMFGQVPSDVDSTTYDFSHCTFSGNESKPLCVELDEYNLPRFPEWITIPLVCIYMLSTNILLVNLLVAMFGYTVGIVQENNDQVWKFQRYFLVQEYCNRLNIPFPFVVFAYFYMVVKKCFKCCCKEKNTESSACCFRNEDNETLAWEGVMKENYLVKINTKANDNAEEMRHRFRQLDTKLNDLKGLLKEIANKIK
Description: (§1) The compounds were tested on HEK-293 cells either stably transfected with rat TRPA1, TRPV2, TRPV3, TRPV4, TRPM8 or human TRPV1 or not-transfected, by performing a continuous monitoring of the intracellular calcium ([Ca^2+]i) elevation during the experiments, following the protocol already described. […] Cell fluorescence before and after the addition of various concentrations of tested compounds was measured, normalizing the effects against the response to ionomycin (IM, 4 μM). The effect on [Ca^2+]i in non-transfected HEK-293 cells were used as the baseline and subtracted from the values obtained from the transfected ones. The efficacy of the agonists was determined by normalizing their effect to the maximum Ca^2+ influx effect on [Ca^2+]i observed with application of 4μM ionomycin. The effects of TRPA1 agonists are expressed as a percentage of the effect obtained with 100 μM allyl isothiocyanate (AITC). In the TRPV3 assay, rat TRPV3-expressing HEK-293 cells were first sensitized with the structurally unrelated agonist 2-aminoethoxydiphenyl borate (100 μM). For the TRPM8, the experiments were carried out at 22 °C. The potency (EC50 values) is determined as the concentration required to produce half-maximal increases in [Ca^2+]i. […] A dose-response curve fitting (sigmoidal dose-response variable slope) and parameter estimation were performed with Graph-Pad Prism 8 (GraphPad Software Inc., San Diego, CA, USA). All determinations were performed at least in triplicate.

rat TRPA1 = target: T2, rat TRPA1 (Rattus norvegicus, UniProt Q6RI86); experiment: Thermo-TRP assay: [Ca2+]i elevation (Fluo-4) in HEK-293 cells transfected with TRPA1; conditions: for TRPA1 Efficacy (% AITC 100 μM): agonist effect as % of AITC 100 μM, HEK-293 rat TRPA1; for IC50: antagonist/desensitizing, added 5 min before AITC 100 μM, read-out: IC50 TRPA1; for EC50: half-maximal increase in [Ca2+]i, read-out: TRPA1 Potency EC50
T2 construct: expressed in transfected cells
T2 sequence (Q6RI86 whole entry): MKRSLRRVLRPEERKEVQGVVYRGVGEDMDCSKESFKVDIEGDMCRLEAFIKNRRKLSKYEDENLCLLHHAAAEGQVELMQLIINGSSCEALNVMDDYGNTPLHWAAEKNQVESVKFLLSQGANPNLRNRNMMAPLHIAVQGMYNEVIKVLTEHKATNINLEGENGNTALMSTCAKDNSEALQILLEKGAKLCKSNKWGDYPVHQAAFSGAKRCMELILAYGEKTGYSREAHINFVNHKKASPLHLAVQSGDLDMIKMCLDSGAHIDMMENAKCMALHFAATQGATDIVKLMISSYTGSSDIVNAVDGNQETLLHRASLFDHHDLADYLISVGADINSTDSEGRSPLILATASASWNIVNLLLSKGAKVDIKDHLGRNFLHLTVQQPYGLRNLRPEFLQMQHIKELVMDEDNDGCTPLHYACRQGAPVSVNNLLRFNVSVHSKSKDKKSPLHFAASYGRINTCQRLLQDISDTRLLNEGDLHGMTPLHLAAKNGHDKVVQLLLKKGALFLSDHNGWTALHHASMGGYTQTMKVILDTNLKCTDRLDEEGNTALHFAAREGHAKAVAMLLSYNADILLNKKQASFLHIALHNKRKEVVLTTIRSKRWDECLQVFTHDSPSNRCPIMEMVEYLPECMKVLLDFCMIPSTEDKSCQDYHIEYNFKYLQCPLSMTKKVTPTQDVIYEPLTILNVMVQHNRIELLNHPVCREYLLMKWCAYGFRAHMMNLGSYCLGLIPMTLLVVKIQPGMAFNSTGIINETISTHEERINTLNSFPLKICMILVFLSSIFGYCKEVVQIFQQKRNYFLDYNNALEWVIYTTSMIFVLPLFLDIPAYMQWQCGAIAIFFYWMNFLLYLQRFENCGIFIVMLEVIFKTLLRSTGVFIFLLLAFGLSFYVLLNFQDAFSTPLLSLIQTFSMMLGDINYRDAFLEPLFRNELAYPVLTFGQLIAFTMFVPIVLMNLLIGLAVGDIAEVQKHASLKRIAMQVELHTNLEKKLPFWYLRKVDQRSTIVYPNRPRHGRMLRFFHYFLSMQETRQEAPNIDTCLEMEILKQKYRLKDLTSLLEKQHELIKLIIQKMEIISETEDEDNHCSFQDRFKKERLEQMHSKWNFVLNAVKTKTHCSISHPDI
Description: as §1

rat TRPV2 = target: T3, rat TRPV2 (Rattus norvegicus, UniProt Q9WUD2); experiment: Thermo-TRP assay: [Ca2+]i elevation (Fluo-4) in HEK-293 cells transfected with TRPV2; conditions: for TRPV2 Efficacy (% Ionomycin 4 μM): agonist effect as % of ionomycin 4 μM; for EC50: half-maximal increase in [Ca2+]i, read-out: TRPV2 Potency EC50; for IC50: vs CBD 2 μM
T3 construct: expressed in transfected cells
T3 sequence (Q9WUD2 1-761): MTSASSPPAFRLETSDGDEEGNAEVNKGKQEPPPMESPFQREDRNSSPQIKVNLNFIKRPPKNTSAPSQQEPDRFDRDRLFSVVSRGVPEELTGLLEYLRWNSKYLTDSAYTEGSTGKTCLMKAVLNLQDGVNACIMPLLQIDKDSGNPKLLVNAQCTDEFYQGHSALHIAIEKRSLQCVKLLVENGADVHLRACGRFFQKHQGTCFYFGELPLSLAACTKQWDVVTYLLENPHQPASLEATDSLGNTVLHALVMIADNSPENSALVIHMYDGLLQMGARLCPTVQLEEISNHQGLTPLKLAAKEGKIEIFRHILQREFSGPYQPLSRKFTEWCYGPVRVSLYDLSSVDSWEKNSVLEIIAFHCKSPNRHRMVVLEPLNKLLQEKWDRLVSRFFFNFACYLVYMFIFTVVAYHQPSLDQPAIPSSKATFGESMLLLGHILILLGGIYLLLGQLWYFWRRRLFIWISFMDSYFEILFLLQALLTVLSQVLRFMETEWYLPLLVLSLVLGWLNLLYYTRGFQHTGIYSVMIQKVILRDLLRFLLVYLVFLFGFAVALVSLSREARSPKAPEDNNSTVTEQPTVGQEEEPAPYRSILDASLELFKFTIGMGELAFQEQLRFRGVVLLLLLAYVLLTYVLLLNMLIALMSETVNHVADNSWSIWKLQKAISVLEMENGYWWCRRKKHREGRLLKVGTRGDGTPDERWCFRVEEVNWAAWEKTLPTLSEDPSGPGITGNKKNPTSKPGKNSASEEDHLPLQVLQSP
Description: The compounds were tested on HEK-293 cells either stably transfected with rat TRPA1, TRPV2, TRPV3, TRPV4, TRPM8 or human TRPV1 or not-transfected, by performing a continuous monitoring of the intracellular calcium ([Ca^2+]i) elevation during the experiments, following the protocol already described. On the day of the experiment, the cells were loaded for 1 h in the dark at room temperature with the fluorescent probe Fluo-4 AM (4 μM in DMSO containing 0.02% Pluronic F-127). The cells were rinsed, resuspended in Tyrode’s solution (145 mM NaCl, 2.5 mM KCl, 1.5 mM CaCl2, 1.2 mM MgCl2, 10 mM D-glucose, and 10 mM HEPES, pH 7.4), and transferred to a quartz cuvette of a spectrofluorimeter (PerkinElmer LS50B; λEX = 488 nm, λEM = 516 nm) equipped with a PTP-1 fluorescence Peltier system (PerkinElmer Life and Analytical Sciences, Waltham, MA, USA) under continuous stirring. Cell fluorescence before and after the addition of various concentrations of tested compounds was measured, normalizing the effects against the response to ionomycin (IM, 4 μM). The effect on [Ca^2+]i in non-transfected HEK-293 cells were used as the baseline and subtracted from the values obtained from the transfected ones. The efficacy of the agonists was determined by normalizing their effect to the maximum Ca^2+ influx effect on [Ca^2+]i observed with application of 4μM ionomycin. The effects of TRPA1 agonists are expressed as a percentage of the effect obtained with 100 μM allyl isothiocyanate (AITC). In the TRPV3 assay, rat TRPV3-expressing HEK-293 cells were first sensitized with the structurally unrelated agonist 2-aminoethoxydiphenyl borate (100 μM). For the TRPM8, the experiments were carried out at 22 °C. The potency (EC50 values) is determined as the concentration required to produce half-maximal increases in [Ca^2+]i. Antagonist/desensitizing behavior is evaluated against the agonist of the TRP analyzed by adding the compounds directly in the quartz cuvette 5 min before stimulation of cells with the agonist (allylisothiocyanate (100 μM) for TRPA1, capsaicin (0.1 μM) for TRPV1, cannabidiol (2 μM) for TRPV2, thymol (100 μM) for TRPV3, GSK1016790A (10 nM) for TRPV4, and icilin (0.25 μM) for TRPM8). The IC50 value is expressed as the concentration exerting a half-maximal inhibition of the agonist effect, taking as 100% the effect on [Ca^2+]i exerted by the agonist alone. A dose-response curve fitting (sigmoidal dose-response variable slope) and parameter estimation were performed with Graph-Pad Prism 8 (GraphPad Software Inc., San Diego, CA, USA). All determinations were performed at least in triplicate.

[1] = vs Icilin 0.25 μM, 22 °C, read-out: IC50 TRPM8

Row | SMILES | IC50 (rat TRPM8; [1]) [µM] | TRPA1 Efficacy (% AITC 100 μM) (rat TRPA1) [%] | IC50 (rat TRPA1) [µM] | EC50 (rat TRPA1) [µM] | TRPV2 Efficacy (% Ionomycin 4 μM) (rat TRPV2) [%] | EC50 (rat TRPV2) [µM] | IC50 (rat TRPV2) [µM] | IC50 (rat TRPM8) [µM]
1 | C=C(C)[C@@H]1CCC(C)=C[C@H]1C1=C(O)C(=O)C(C(C)(C)CCCCCC)=CC1=O [5b] | 1.2 ± 0.1 | 120.4 ± 3.0 | 3.5 ± 0.2 | 5.2 ± 0.8 | 30.6 ± 6.5 | 12.2 ± 9.7 | 5.45 ± 0.5 | –
2 | CCCCCCC(C)(C)C1=CC2=C(C(=O)C1=O)[C@@H]1CC(C)=CC[C@H]1C(C)(C)O2 [6b] | – | 147.3 ± 7.3 | 1.8 ± 0.3 | 4.4 ± 1.25 | 78.1 ± 4.0 | > 50 | 8.5 ± 0.5 | > 100
3 | CCCCCCC(C)(C)C1=CC(=O)C(C/C=C(\C)CCC=C(C)C)=C(O)C1=O [7b, p-DMHCBGQ] | 14.9 ± 3.9 | 114.2 ± 4.1 | 1.1 ± 0.1 | 1.1 ± 0.2 | 47.8 ± 1.4 | 30.5 ± 3.9 | 23.7 ± 2.9 | –
4 | CCCCCCC(C)(C)C1=CC(=O)C2=C(OC(C)(CCC=C(C)C)C=C2)C1=O (stereo not shown) [8b] | > 100 | 111.2 ± 2.1 | 0.35 ± 0.02 | 0.19 ± 0.03 | 31.5 ± 2.9 | > 50 | 6.9 ± 0.1 | –
